Reference: patent US8507475B2, “Substituted heteroarylamide diazepinopyrimidone derivatives” (Sanofi, priority 2008, dated 2013)
Structures can show the parent of a compound that is named as a salt.

How the values were obtained:
GSK3β = GSK3β (Homo sapiens, UniProt P49841); assay: Inhibitory activity against GSK3β (33P-ATP phosphorylation of prephosphorylated GS1 peptide); assay type: biochemical; conditions: protocol 4: commercial GSK3beta (Millipore), 7.5 μM GS1 peptide, 10 μM ATP, 50 mM Hepes pH 7.2, 90 minutes at room temperature
Method: Four different protocols can be used. In a first protocol: 7.5 μM of prephosphorylated GS1 peptide and 10 μM ATP (containing 300,000 cpm of ^33P-ATP) were incubated in 25 mM Tris-HCl, pH 7.5, 0.6 mM DTT, 6 mM MgCl2, 0.6 mM EGTA, 0.05 mg/ml BSA buffer for 1 hour at room temperature in the presence of GSK3beta (total reaction volume: 100 microliters). In a second protocol: 4.1 μM of prephosphorylated GS1 peptide and 42 μM ATP (containing 260,000 cpm ^33P-ATP) were incubated in 80 mM Mes-NaOH, pH 6.5, 1 mM Mg acetate, 0.5 mM EGTA, 5 mM 2-mercaptoethanol, 0.02% Tween 20, 10% glycerol buffer for 2 hours at room temperature in the presence of GSK3beta. In a third protocol: 7.5 μM of prephosphorylated GS1 peptide and 10 μM ATP (containing 300,000 cpm of ^33P-ATP) were incubated in 50 mM Hepes, pH 7.2, 1 mM DTT, 1 mM MgCl2, 1 mM EGTA, 0.01% Tween 20 buffer for one hour at room temperature in the presence of GSK3beta (total reaction volume: 100 microliters). In a fourth protocol: 7.5 μM of prephosphorylated GS1 peptide and 10 μM ATP (containing 300,000 cpm of ^33P-ATP) were incubated in 50 mM Hepes, pH 7.2, 1 mM DTT, 1 mM MgCl2, 1 mM EGTA, 0.01% Tween 20 buffer for 90 minutes at room temperature in the presence of commercial GSK3beta (Millipore) (total reaction volume: 100 microliters). Inhibitors were solubilised in DMSO (final solvent concentration in the reaction medium, 1%). The reaction was stopped with 100 microliters of a solution made of 25 g polyphosphoric acid (85% P2O5), 126 ml 85% H3PO4, H2O to 500 ml and then diluted to 1:100 before use. An aliquot of the reaction mixture was then transferred to Whatman P81 cation exchange filters and rinsed with the solution described above. Incorporated ^33P radioactivity was determined by liquid scintillation spectrometry. The phosphorylated GS-1 peptide had the following sequence: NH2-[…](P)EDEE-COOH. (Woodgett, J. R. (1989) Analytical Biochemistry 180, 237-241.

GSK3β, sequence (P49841 whole entry): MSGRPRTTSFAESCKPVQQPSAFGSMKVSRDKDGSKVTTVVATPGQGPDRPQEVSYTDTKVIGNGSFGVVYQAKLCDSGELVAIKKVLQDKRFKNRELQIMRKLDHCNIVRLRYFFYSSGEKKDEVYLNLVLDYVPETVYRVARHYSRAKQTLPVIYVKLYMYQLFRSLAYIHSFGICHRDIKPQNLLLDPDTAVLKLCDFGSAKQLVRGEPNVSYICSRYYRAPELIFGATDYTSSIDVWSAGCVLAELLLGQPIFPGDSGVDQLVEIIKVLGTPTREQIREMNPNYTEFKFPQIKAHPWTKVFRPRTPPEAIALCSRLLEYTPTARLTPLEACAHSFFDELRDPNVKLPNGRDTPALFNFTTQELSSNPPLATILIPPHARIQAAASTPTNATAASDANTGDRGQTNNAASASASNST

Row | Compound | IC50 (GSK3β) | melting point
1 | CN1CCn2c(nc(-c3ccncn3)cc2=O)C(NC(=O)c2cc(Cl)c(N)c3c2OCCO3)C1 (racemic) [compound 22, (+/−)-8-Amino-7-chloro-2,3-dihydro-benzo[1,4]dioxine-5-carboxylic acid (7-methyl-4-oxo-2-pyrimidin-4-yl-4,5,6,7,8,9-hexahydro-1,4a,7-triaza-benzocyclohepten-9-yl)-amide] | 47 nM | 169 to 171 °C
2 | O=C(NC1CNCCn2c1nc(-c1ccncc1)cc2=O)c1cc(F)cc2c1OCOC2 (racemic) [Compound No. 26, (+/−)-6-Fluoro-4H-benzo[1,3]dioxine-8-carboxylic acid (4-oxo-2-pyridin-4-yl-4,5,6,7,8,9-hexahydro-1,4a,7-triaza-benzocyclohepten-9-yl)-amide] | 12 nM | –
3 | CCOC(=O)N1CCn2c(nc(-c3ccncc3)cc2=O)C(NC(=O)c2cccc3c2OCC3)C1 (racemic) [compound 8, (+/−)-9-[(2,3-Dihydro-benzofuran-7-carbonyl)-amino]-4-oxo-2-pyridin-4-yl-5,6,8,9-tetrahydro-4H-1,4-a,7-thaza-benzocycloheptene-7-carboxylic acid ethyl ester] | 109 nM | 284 to 286 °C
4 | CCOC(=O)N1CCn2c(nc(-c3ccncn3)cc2=O)C(NC(=O)c2ccc3ncccc3n2)C1 (racemic) [Compound No. 1, (+/−)-9-[([1,5]Naphthyridine-2-carbonyl)-amino]-4-oxo-2-pyrimidin-4-yl-5,6,8,9-tetrahydro-4H-1,4a,7-triaza-benzocycloheptene-7-carboxylic acid ethyl ester] | 73 nM | 284 to 286 °C
5 | O=C(NC1CNCCn2c1nc(-c1ccncc1)cc2=O)c1cc(F)cc2c1OCOC2 (racemic) (as salt: HCl) [Compound No. 26, (+/−)-6-Fluoro-4H-benzo[1,3]dioxine-8-carboxylic acid (4-oxo-2-pyridin-4-yl-4,5,6,7,8,9-hexahydro-1,4a,7-triaza-benzocyclohepten-9-yl)-amide] | – | 232 to 234 °C
